Molecular target: WT (S31) M2 proton channel (full length AM2 protein) (Influenza A virus, UniProt P0DOF5)
Assay: biochemical
Conditions: read-out: WT % inhibition (TEVC)

Sequence of WT (S31) M2 proton channel (full length AM2 protein) (P0DOF5 whole entry): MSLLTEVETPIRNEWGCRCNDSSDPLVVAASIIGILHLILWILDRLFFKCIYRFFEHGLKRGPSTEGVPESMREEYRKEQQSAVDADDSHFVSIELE

SMILES: COC(=O)[C@H](Cc1cnc[nH]1)NCC12CC3CC(CC(C3)C1)C2 [Compound 3]
- inhibition at 100 µM: 21%

From paper PMC4036227 (Journal of medicinal chemistry, 2013)
